Source: ChEMBL document CHEMBL1201862, “PubChem BioAssay data set” (2004)
Calls of active or inactive are those of the source.

Columns and labels:
Beta-galactosidase = Beta-galactosidase (Escherichia coli, UniProt Q8VNN2); test: Dose response counterscreen for EBI2 assay utilizing the enzyme, b-galactosidase.; assay type: functional
[1] = target: T1, Nuclear receptor subfamily 0 group B member 1 (Homo sapiens, UniProt P51843); assay type: functional, cell-based;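 also: HEK293T cells transfected with SF-1 and DAX-1 plus StAR promoter luciferase reporter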
T1 sequence (P51843 whole entry): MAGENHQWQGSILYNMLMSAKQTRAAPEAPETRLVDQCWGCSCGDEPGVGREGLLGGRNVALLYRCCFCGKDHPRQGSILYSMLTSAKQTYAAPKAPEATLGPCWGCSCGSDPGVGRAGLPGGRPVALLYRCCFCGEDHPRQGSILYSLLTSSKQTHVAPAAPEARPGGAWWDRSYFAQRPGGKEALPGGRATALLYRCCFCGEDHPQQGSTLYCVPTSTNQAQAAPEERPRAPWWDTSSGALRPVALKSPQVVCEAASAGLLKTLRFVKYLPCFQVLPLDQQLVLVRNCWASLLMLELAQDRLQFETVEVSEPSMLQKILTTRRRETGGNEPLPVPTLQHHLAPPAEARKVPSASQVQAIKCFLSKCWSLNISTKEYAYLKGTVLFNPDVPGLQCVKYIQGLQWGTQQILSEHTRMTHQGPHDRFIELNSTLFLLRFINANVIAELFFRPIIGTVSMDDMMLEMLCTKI

cells = assay type: functional, cell-based
[2] = microbe, parasite or virus in culture; assay type: functional; settings: Mycobacterium tuberculosis
[3] = inhibition of ADAM10 peptide cleavage – biochemical, FRET peptide substrate, recombinant human ADAM10, selectivity assay for ADAM17 exosite inhibitor project, dose response (AID 743259);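 also: ADAM10 enzyme cleaving a FRET peptide substrate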
[4] = target: Disintegrin and metalloproteinase domain-containing protein 17 (Homo sapiens, UniProt P78536); test: exosite inhibitors of ADAM17, dose response, biochemical (AID 743260)
Chain of Disintegrin and metalloproteinase domain-containing protein 17 (P78536 whole entry, the tested form may be a part): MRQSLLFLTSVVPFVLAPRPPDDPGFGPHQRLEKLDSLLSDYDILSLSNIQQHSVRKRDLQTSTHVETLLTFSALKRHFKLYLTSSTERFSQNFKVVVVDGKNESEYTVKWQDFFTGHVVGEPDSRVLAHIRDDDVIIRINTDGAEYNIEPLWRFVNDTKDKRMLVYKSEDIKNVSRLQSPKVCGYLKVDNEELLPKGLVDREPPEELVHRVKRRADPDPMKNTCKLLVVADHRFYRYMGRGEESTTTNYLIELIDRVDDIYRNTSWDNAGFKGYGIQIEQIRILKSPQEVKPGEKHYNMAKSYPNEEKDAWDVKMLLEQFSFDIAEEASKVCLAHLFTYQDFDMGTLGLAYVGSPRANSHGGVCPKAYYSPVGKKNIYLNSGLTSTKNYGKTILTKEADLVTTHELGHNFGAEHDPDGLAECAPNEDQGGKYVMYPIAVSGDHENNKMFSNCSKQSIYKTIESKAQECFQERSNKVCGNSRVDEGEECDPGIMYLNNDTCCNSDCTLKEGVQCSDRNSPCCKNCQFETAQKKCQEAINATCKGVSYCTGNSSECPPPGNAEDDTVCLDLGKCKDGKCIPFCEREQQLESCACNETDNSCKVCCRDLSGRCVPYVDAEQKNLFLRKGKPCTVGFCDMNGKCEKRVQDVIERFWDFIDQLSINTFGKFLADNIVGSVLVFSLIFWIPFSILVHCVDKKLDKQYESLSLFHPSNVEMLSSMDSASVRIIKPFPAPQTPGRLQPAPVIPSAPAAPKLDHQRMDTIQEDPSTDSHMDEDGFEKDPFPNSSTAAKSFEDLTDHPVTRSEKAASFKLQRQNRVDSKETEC

[5] = target: Long-chain-fatty-acid--AMP ligase FadD28 (Mycobacterium tuberculosis, UniProt P9WQ59); test: Fluorescence polarization aasay to screen for inhibitors that compete for the binding of FadD28 to a bisubstrate Measured in Biochemical System Using Plate Reader - 2147-01_Inhibitor_Dose_CherryPick_Activity.; assay type: functional, Mycobacterium tuberculosis H37Rv
Fatty acid synthase [6] = target: T2, Fatty acid synthase (Homo sapiens, UniProt P49327); test: inhibition of human FAS-TE enzyme activity – biochemical, kinetic fluorescence intensity, dose response (AID 624326); assay type: functional;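 also: rate of fluorescence rise from hydrolysis of a fluorogenic O-methyl fluorescein ester substrate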
T2 sequence (P49327 whole entry): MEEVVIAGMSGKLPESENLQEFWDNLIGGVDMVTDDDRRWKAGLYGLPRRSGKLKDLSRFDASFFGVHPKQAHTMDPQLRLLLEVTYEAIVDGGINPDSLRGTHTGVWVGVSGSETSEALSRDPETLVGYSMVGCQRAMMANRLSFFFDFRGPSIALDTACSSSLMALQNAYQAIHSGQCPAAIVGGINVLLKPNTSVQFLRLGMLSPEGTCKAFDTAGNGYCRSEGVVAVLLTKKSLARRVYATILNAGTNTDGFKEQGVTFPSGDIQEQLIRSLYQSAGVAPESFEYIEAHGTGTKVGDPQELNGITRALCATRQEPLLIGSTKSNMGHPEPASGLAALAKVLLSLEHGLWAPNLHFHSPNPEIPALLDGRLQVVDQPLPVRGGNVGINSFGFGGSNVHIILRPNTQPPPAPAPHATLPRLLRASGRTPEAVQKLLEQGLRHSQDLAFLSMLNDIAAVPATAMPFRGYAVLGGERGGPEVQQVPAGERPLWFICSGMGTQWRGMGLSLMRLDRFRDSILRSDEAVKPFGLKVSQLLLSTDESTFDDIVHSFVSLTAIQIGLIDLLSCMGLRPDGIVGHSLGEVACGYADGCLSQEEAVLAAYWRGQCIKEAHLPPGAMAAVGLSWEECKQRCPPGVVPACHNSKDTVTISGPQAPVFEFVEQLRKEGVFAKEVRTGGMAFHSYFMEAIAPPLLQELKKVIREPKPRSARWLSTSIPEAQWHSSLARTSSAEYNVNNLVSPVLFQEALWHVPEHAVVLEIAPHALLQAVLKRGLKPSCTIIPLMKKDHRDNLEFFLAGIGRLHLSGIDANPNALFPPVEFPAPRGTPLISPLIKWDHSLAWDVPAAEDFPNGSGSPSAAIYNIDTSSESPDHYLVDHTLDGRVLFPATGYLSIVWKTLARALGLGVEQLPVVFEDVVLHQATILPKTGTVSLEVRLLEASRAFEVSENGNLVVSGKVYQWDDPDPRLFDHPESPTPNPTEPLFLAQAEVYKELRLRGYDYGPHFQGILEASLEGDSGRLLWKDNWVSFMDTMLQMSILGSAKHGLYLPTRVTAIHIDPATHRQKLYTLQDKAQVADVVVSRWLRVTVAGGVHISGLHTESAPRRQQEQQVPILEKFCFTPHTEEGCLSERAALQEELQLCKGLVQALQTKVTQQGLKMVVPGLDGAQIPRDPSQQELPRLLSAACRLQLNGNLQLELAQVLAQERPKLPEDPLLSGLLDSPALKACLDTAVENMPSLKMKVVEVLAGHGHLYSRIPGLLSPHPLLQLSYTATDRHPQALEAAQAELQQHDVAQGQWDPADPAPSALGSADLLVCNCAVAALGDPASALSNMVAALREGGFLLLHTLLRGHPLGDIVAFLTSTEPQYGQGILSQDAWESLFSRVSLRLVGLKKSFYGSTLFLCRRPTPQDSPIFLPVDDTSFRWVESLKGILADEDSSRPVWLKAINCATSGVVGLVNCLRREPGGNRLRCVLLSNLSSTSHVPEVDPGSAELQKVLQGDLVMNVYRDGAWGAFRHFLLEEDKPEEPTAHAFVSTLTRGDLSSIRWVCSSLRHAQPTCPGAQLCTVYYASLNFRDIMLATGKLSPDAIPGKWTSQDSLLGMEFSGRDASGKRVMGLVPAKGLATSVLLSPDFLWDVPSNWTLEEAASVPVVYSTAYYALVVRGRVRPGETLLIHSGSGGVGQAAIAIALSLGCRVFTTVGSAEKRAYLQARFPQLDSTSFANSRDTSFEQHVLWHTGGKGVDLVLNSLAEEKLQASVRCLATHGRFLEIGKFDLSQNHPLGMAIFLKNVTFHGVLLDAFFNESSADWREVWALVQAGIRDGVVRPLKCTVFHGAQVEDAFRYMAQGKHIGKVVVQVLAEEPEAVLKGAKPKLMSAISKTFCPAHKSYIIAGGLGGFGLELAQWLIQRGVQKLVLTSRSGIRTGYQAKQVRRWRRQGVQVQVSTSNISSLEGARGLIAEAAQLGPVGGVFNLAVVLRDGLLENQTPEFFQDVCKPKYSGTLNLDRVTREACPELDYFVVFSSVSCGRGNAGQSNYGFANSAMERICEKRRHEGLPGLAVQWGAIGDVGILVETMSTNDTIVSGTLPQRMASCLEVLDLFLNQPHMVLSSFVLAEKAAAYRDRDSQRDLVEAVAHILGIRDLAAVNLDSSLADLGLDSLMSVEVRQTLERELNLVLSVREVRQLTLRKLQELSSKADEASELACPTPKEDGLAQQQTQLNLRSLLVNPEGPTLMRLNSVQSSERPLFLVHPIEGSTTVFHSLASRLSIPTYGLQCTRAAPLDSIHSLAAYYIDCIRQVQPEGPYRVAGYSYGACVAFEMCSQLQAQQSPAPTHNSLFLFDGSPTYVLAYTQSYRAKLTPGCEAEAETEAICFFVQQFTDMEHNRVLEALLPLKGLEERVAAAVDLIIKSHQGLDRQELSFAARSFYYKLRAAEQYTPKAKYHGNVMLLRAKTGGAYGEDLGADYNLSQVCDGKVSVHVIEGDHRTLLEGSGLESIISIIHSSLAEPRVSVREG

Fatty acid synthase [7] = target: T2, Fatty acid synthase; test: inhibition of human FAS-TE enzyme activity – biochemical, endpoint fluorescence intensity, uHTS hits, dose response (AID 624327); assay type: functional;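 also: fluorescence from hydrolysis of an O-methyl fluorescein acyl ester substrate by the enzyme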
fMet-Leu-Phe receptor = fMet-Leu-Phe receptor (Homo sapiens, UniProt P21462); test: formyl peptide receptor binders – dose response (AID 519); assay type: functional
[8] = Counterscreen for inhibitors of Trypanosoma brucei methionyl tRNA synthetase (MetRS): Luminescence-based cell-based high throughput dose response assay to identify compounds that are cytotoxic to Jurkat human T lymphocyte cells.; assay type: functional
[9] = target: Photoreceptor-specific nuclear receptor (Homo sapiens, UniProt Q9Y5X4); assay type: functional, cell-based;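 also: CHO-S cells with Gal4-NCOR and VP16-NR2E3 two-hybrid luciferase reporter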
[10] = target: T3, Methionyl-tRNA synthetase, putative (Trypanosoma brucei brucei, UniProt Q38C91); assay type: functional, Trypanosoma brucei brucei strain 927/4 GUTat10.1
T3 sequence (Q38C91 whole entry): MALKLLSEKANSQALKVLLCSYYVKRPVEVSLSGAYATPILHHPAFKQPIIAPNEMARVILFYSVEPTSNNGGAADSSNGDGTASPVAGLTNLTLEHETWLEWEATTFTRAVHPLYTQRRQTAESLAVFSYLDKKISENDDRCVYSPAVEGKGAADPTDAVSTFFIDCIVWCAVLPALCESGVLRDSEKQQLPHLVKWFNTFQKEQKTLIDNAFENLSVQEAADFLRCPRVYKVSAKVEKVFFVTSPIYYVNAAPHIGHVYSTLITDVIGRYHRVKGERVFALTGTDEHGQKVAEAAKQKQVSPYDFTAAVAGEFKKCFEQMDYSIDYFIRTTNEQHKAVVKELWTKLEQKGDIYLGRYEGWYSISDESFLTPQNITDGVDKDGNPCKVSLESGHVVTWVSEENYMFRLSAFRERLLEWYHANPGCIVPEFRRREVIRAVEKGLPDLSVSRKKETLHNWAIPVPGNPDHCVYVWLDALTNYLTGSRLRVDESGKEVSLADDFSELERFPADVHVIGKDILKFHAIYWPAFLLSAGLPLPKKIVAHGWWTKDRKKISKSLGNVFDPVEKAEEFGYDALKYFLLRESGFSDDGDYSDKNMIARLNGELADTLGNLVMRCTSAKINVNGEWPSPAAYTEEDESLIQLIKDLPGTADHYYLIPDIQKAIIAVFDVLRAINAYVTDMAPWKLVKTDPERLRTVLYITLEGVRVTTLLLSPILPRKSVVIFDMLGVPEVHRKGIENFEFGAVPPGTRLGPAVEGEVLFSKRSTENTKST

[11] = target: T3, Methionyl-tRNA synthetase, putative; assay type: functional, Trypanosoma brucei brucei strain 927/4 GUTat10.1; remark: listed apart in the source
[12] = general cell-killing toxicity readout – plate reader, dry powder samples, cytotoxicity control for PAX8 inhibitor project, dose response (AID 743021); assay type: functional, cell-based
[13] = target: T4, Endoribonuclease toxin MazF (Escherichia coli K-12, UniProt P0AE70); test: activation of MazEF endoribonuclease cleavage – biochemical, fluorescence, single-stranded RNA substrate, uHTS hits, dose response (AID 588481); assay type: functional
T4 sequence (P0AE70 whole entry): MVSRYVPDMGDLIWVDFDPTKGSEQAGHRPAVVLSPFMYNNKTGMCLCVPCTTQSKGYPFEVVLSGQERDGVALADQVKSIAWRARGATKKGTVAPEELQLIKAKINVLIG

Caspase-7 = target: T5, Caspase-7 (Homo sapiens, UniProt P55210); test: caspase-7 enzyme inhibition, selectivity check – biochemical, DEVD-R110 fluorescence, cherry-pick, selectivity assay for caspase-6 inhibitor project, dose response (AID 743295); assay type: functional
T5 sequence (P55210 whole entry): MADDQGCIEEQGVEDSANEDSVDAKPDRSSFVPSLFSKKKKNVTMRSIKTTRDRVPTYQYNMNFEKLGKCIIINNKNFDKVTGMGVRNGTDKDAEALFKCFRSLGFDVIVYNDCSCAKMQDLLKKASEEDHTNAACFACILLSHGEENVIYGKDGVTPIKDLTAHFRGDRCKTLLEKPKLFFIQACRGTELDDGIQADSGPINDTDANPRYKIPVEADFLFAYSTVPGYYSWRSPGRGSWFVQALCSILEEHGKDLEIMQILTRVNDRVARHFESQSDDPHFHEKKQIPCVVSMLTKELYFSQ

Caspase-6 = target: T6, Caspase-6 (Homo sapiens, UniProt P55212); test: inhibition of CASP6 peptide cleavage – biochemical, VEID-R110 fluorescence, cherry-pick, dose response (AID 720632)
T6 sequence (P55212 whole entry): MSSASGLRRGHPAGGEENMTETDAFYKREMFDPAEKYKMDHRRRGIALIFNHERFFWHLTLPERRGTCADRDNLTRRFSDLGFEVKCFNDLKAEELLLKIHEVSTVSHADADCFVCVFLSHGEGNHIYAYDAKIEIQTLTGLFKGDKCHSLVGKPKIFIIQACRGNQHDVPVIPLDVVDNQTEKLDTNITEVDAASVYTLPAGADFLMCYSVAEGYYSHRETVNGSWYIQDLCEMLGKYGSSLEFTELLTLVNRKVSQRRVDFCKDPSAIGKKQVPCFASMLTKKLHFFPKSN

[14] = target: Glucose-6-phosphate 1-dehydrogenase (Homo sapiens, UniProt P11413); test: inhibition of Homo sapiens G6PD, dose series – biochemical, fluorescence, selectivity assay for P. falciparum G6PD inhibitor project, dose response (AID 504792); assay type: functional
Chain of Glucose-6-phosphate 1-dehydrogenase (P11413 whole entry): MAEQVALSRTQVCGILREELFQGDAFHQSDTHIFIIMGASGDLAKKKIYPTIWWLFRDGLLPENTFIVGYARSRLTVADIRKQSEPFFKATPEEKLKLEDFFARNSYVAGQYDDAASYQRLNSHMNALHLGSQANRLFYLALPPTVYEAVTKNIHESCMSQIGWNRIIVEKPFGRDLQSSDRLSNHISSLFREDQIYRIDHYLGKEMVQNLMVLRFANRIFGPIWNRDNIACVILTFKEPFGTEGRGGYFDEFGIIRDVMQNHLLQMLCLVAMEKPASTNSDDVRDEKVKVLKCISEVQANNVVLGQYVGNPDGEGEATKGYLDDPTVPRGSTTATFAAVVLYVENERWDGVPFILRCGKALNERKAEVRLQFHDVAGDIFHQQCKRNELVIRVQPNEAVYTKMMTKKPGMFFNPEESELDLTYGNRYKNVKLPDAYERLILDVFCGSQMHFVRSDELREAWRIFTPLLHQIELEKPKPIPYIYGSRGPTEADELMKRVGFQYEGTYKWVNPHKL

[15] = target: T4, Endoribonuclease toxin MazF; test: substrate-only fluorescence increase artefacts – biochemical, single-stranded RNase substrate, counter-screen for MazEF activator project, dose response (AID 588502); assay type: functional

Chain of Beta-galactosidase (Q8VNN2 whole entry): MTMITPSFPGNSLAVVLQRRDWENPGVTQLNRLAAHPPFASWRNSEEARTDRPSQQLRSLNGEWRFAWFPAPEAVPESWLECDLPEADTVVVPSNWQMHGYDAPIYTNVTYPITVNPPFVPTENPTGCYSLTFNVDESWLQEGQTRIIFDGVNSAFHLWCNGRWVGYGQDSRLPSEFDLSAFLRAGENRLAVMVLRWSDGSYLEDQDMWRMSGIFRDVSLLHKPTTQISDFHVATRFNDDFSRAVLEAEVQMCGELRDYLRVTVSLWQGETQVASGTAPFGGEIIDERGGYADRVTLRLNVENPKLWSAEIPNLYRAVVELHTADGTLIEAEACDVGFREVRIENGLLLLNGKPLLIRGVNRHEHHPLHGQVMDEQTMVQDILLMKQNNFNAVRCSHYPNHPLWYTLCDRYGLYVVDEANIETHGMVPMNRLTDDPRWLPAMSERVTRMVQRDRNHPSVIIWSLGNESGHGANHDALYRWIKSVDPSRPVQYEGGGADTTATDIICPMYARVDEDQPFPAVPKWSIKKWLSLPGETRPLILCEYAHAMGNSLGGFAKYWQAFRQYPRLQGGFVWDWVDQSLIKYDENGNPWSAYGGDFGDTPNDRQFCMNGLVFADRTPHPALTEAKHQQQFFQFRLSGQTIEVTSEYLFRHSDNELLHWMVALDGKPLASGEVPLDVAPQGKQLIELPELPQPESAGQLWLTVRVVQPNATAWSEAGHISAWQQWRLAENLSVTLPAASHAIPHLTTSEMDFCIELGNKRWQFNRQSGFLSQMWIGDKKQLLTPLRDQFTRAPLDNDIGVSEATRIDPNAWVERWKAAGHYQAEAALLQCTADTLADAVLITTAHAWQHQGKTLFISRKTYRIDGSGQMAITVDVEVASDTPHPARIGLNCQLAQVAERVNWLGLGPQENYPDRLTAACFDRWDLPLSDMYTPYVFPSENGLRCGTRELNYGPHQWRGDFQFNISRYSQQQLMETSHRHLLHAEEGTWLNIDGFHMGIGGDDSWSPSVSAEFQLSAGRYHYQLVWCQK

With `Cc1ccc(NC2=CC(=O)CC(c3ccc(Cl)cc3)C2)cc1` (stereo not drawn) the IC50 (Beta-galactosidase) was > 80 µM (inactive).
For `CC1=C(C(=O)Nc2ccc(CC(=O)NCc3ccc(OC(C)C)cc3)cc2)SCCO1`, the IC50 [1] was > 67.5 µM (inactive) and the IC50 (cells) was > 67.5 µM (inactive).
For `CCOc1ccc(-c2[nH]ncc2-c2ccc(Cl)cc2)c(O)c1`, the CC50 [2] was > 40 µM (active), the IC50 [3] was 23.7 µM (inactive) and the IC50 [4] was > 69.5 µM (inactive).
For `O=C(CN1C(=O)S/C(=C\c2ccccc2)C1=O)Nc1cc([N+](=O)[O-])ccc1O`, the AC50 [5] was 61.2 µM (active), the IC50 (Fatty acid synthase [6]) was 1.83 µM (active) and the IC50 (Fatty acid synthase [7]) was 2.94 µM (active).
In the case of `CCc1cc(C(=O)OC)c(NC(=O)C2CC(=O)NN2Cc2ccccc2)s1` (stereo not drawn), the IC50 [3] was > 69.5 µM (inactive) and the IC50 [4] was > 69.5 µM (inactive).
For `CCOc1ccc(C(=O)C2=C(O)C(=O)N(CC3CCCO3)C2c2ccc(C)o2)cc1` (stereo not drawn), the Ki (fMet-Leu-Phe receptor) was 21.1 µM (inactive).
With `COc1cccc(NC(=O)CSc2nc3cc(Br)c[nH]c-3n2)c1` the IC50 [8] was 83.3 µM (inactive), the IC50 [9] was 0.377 µM (active) and the IC50 [10] was 2 µM (active). The IC50 [11] was 4.03 µM (active).
With `COc1ccccc1N1CCN(C(=O)c2cc(-c3ccc(F)cc3)[nH]c2C)CC1` the IC50 (Beta-galactosidase) was > 80 µM (inactive).
With `Cn1c(SCC(=O)c2ccccc2)nnc1-c1ccccn1` the AC50 [12] was 51 µM (active).
For `Cc1ccc([S+]([O-])c2ccc([N+](=O)[O-])c3nonc23)cc1` (stereo not drawn), the EC50 [13] was > 99 µM (inactive), the AC50 (Caspase-7) was > 70 µM (inactive) and the AC50 (Caspase-6) was 2.56 µM (active). For the same compound, the IC50 [14] was 42.3 µM (inactive) and the EC50 [15] was > 99 µM (inactive).
